From patent publication US11718618B2, “Substituted pyrido[2,1-a]isoquinolines as VMAT2 inhibitors” (priority 2021, dated 2023)
Where two headings read alike, the source gives them in different places.

Assays:
human VMAT2 = human VMAT2 (Homo sapiens (Human), UniProt Q05940); assay: VMAT2 radioligand binding, 3H-dihydrotetrabenazine competition on human platelet homogenate
Procedure: Examples of techniques for determining the capability of a compound to inhibit VMAT2 are provided below. The procedure was adapted from that described previously (see, e.g., Near, (1986), Mol. Pharmacol. 30: 252-57; Teng, et al., J. Neurochem. 71, 258-65, 1998). Homogenates from human platelets were prepared by homogenization and then washed by centrifugation as described previously (see, e.g., Hoare et al., (2003) Peptides 24:1881-97).
The human VMAT2 Ki values for the compounds listed in Table 15A and Table 15B were determined using the following procedures. Compound dilution series in DMSO were generated from either powder stocks by hand, or from DMSO stocks using serial dilution on a Vantage (Hamilton), or direct dilution using an Echo 655 (Beckman). In a total volume of 0.145 to 0.150 mL in low-binding 96-well plates (Corning #3605), twelve concentrations of test compound were competed against 10 nM ^3H-dihydrotetrabenezine (American Radiolabeled Chemicals) on human platelet homogenate (30 μg membrane protein per well) in VMAT2 binding buffer (Dulbecco's phosphate buffered saline, 1 mM EDTA, pH 7.4). Following incubation at 25° C. for 90 minutes, bound radioligand was collected by rapid filtration onto either GF/B or GF/C glass fiber filters, pretreated with 0.100 polyethylenimine, using either a Unifilter-96 Harvester (PerkinElmer) or Microlab Star (Hamilton). Following harvesting the filter plates were washed with 0.8 mL VMAT2 binding buffer, and bound radioligand was quantified by scintillation counting using a Topcount NXT or Microplate Counter Microbeta (PerkinElmer).

[1] = Stability of compounds in human liver microsomes; format: in vitro ADME; details: for CLint scaled at 0.5 μM / half-life at 0.5 μM: both sexes, pH 7.4; for CLint scaled at 0.5 μM: liver microsomes, calculated from HLM half-life, read-out: HLM Scaled Intrinsic Clearance; for CLint scaled at 0.5 μM / Predicted Max. Bioavailability (% F) / HLM Predicted Systemic Clearance: human; for half-life at 0.5 μM: 0.5 μM compound, 0.5 mg/mL human liver microsomes, 37° C., maxed at 420 minutes, read-out: HLM Elimination half-life (t1/2, min); for Predicted Max. Bioavailability (% F): predicted from HLM data; for HLM Predicted Systemic Clearance: scaled from HLM half-life (Obach method)
Procedure: A test compound (0.5 μM) was incubated with pooled mixed gender liver microsomes from humans (0.5 mg/mL total protein) at 37° C. in the presence of an NADPH-generating system containing 50 mM, pH 7.4 potassium phosphate buffer, 3 mM magnesium chloride, 1 mM EDTA, 1 mM NADP, 5 mM glusose-6-phosphate, and 1 Unit/mL glucose-6-phosphate dehydrogenase. All concentrations were relative to the final incubation volume of 125 μL. Incubations were conducted at 37° C. for 0, 5, 10, 20, 40, and 60 minutes in a water bath and terminated by rapid mixing with 150 μL of ice-cold acetonitrile containing internal standard. Precipitated proteins were removed by centrifugation prior to LC-MS/MS analysis. Aliquots of the resulting supernatant fractions were analyzed by LC-MS/MS monitoring for depletion of parent compound. The resultant peak area ratio versus time data was fitted to a non-linear regression using XLfit Scientific Curve Fitting Software (IDBS Ltd., Surrey, UK) and the elimination half-life (t1/2, min) was calculated from the slope. […] Additional values calculated included predicted extraction ratio and predicted maximum bioavailability.

[2] = 10 nM 3H-dihydrotetrabenazine, human platelet homogenate, 25° C., 90 minutes, read-out: VMAT2 Ki

human VMAT2, sequence (Q05940 whole entry): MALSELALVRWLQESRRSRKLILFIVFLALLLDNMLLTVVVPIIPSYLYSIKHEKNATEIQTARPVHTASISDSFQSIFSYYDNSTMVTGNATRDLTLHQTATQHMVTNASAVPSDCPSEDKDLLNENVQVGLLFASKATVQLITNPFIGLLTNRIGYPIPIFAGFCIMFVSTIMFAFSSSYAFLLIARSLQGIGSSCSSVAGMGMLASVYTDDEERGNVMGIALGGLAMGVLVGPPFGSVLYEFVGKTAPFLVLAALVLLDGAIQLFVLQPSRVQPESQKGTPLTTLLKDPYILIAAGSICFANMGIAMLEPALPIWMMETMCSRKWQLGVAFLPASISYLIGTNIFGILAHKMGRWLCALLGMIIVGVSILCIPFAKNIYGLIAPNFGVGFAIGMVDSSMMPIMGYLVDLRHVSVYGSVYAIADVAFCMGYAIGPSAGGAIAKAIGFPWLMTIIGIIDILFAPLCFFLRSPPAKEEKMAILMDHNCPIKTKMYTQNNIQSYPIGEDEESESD

Compound	Ki (human VMAT2; [2]) [nM]	CLint scaled at 0.5 μM [1] [mL/min/kg]	half-life at 0.5 μM [1] [min]	Predicted Max. Bioavailability (% F) [1] [% F]	HLM Predicted Systemic Clearance [1] [mL/min/kg]	Ki (human VMAT2) [nM]
CC[C@H](O)COc1cc2c(cc1OC)[C@H]1C[C@@H](O)[C@H](CC(C)(C)C)CN1CC2 [Compound 4-68, (2R,3R,11bR)-3-(2,2-dimethylpropyl)-9-[(2S)-2-hydroxybutoxy]-10-methoxy-1H,2H,3H,4H,6H,7H,11bH-pyrido[2,1-a]isoquinolin-2-ol]	29	6.37	196	76	4.83	–
COc1cc2c(cc1OCC(C)(F)F)CCN1C[C@@H](CC(C)(C)C)[C@H](O)C[C@H]21 [Compound 4-14, (2R,3R,11bR)-9-(2,2-difluoropropoxy)-3-(2,2-dimethylpropyl)-10-methoxy-1H,2H,3H,4H,6H,7H,11bH-pyrido[2,1-a]isoquinolin-2-ol]	2.6	≤ 2.97	≥ 420	≥87	≤2.59	–
COc1cc2c(cc1OCC(O)COCC(F)(F)F)CCN1C[C@@H](CC(C)(C)C)[C@H](O)C[C@H]21 (stereo partly drawn) [Compound 4-79]	99	5.88	212	77	4.54	–
[2H]C([2H])([2H])C([2H])([2H])Oc1cc2c(cc1OC)[C@H]1C[C@@H](O)[C@H](CC(C)(C)C)CN1CC2 [Compound 4-40, (2R,3R,11bR)-3-(2,2-dimethylpropyl)-9-(ethoxy-d5)-10-methoxy-1H,2H,3H,4H,6H,7H,11bH-pyrido[2,1-a]isoquinolin-2-ol]	–	23.9	52	46	10.88	1.4
COc1cc2c(cc1OC[C@@H](C)OC)CCN1C[C@@H](CC(C)(C)C)[C@H](O)C[C@H]21 [Compound 4-91, (2R,3R,11bR)-3-(2,2-dimethylpropyl)-10-methoxy-9-[(2R)-2-methoxypropoxy]-1H,2H,3H,4H,6H,7H,11bH-pyrido[2,1-a]isoquinolin-2-ol]	28	19.7	63	50	9.92	–
COc1cc2c(cc1OCc1cccc(C#N)c1)CCN1C[C@@H](CC(C)(C)C)[C@H](O)C[C@H]21 [Compound 4-116, 3-({[(2R,3R,11bR)-3-(2,2-dimethylpropyl)-2-hydroxy-10-methoxy-1H,2H,3H,4H,6H,7H,11bH-pyrido[2,1-a]isoquinolin-9-yl]oxy}methyl)benzonitrile]	56	21.8	57	48	10.44	–
COc1cc2c(cc1OC[C@@H](O)C(F)(F)F)CCN1C[C@@H](CC(C)(C)C)[C@H](O)C[C@H]21 [Compound 4-49, (2R,3R,11bR)-3-(2,2-dimethylpropyl)-10-methoxy-9-[(2R)-3,3,3-trifluoro-2-hydroxypropoxy]-1H,2H,3H,4H,6H,7H,11bH-pyrido[2,1-a]isoquinolin-2-ol]	20	≤ 2.97	≥ 420	≥87	≤2.59	–
COc1cc2c(cc1OCC1(F)CC1)CCN1C[C@@H](CC(C)(C)C)[C@@H](O)C[C@H]21 [Compound 4-118, (2S,3R,11bR)-3-(2,2-dimethylpropyl)-9-[(1-fluorocyclopropyl)methoxy]-10-methoxy-1H,2H,3H,4H,6H,7H,11bH-pyrido[2,1-a]isoquinolin-2-ol]	13	6.6	189	75	4.96	–
COc1cc2c(cc1OCC1(F)COC1)CCN1C[C@@H](CC(C)(C)C)[C@H](O)C[C@H]21 [Compound 4-19, (2R,3R,11bR)-3-(2,2-dimethylpropyl)-9-[(3-fluorooxetan-3-yl)methoxy]-10-methoxy-1H,2H,3H,4H,6H,7H,11bH-pyrido[2,1-a]isoquinolin-2-ol]	8.1	14.2	88	59	8.3	–
COc1cc2c(cc1OCCF)CCN1C[C@@H](CC(C)(C)C)[C@H](O)C[C@H]21 [Compound 4-18, (2R,3R,11bR)-3-(2,2-dimethylpropyl)-9-(2-fluoroethoxy)-10-methoxy-1H,2H,3H,4H,6H,7H,11bH-pyrido[2,1-a]isoquinolin-2-ol]	5.5	8.05	155	71	5.74	–
COc1cc2c(cc1OCc1cocn1)CCN1C[C@@H](CC(C)(C)C)[C@H](O)C[C@H]21 [Compound 4-75, (2R,3R,11bR)-3-(2,2-dimethylpropyl)-10-methoxy-9-(1,3-oxazol-4-ylmethoxy)-1H,2H,3H,4H,6H,7H,11bH-pyrido[2,1-a]isoquinolin-2-ol]	76	11.9	104	63	7.48	–
COc1cc2c(cc1OCC#N)CCN1C[C@@H](CC(C)(C)C)[C@H](O)C[C@H]21 [Compound 4-24, 2-{[(2R,3R,11bR)-3-(2,2-dimethylpropyl)-2-hydroxy-10-methoxy-1H,2H,3H,4H,6H,7H,11bH-pyrido[2,1-a]isoquinolin-9-yl]oxy}acetonitrile]	35	10.7	117	65	6.97	–
COc1cc2c(cc1OCC13CC(C(F)(F)F)(C1)C3)CCN1C[C@@H](CC(C)(C)C)[C@H](O)C[C@H]21 [Compound 4-67, (2R,3R,11bR)-3-(2,2-dimethylpropyl)-10-methoxy-9-{[3-(trifluoromethyl)bi-cyclo[1.1.1]pentan-1-yl]methoxy}-1H,2H,3H,4H,6H,7H,11bH-pyrido[2,1-a]isoquinolin-2-ol]	14	≤ 2.97	≥ 420	≥87	≤2.59	–
COc1cc2c(cc1OCC1(C#N)CC1)CCN1C[C@@H](CC(C)(C)C)[C@H](O)C[C@H]21 [Compound 4-29, 1-({[(2R,3R,11bR)-3-(2,2-dimethylpropyl)-2-hydroxy-10-methoxy-1H,2H,3H,4H,6H,7H,11bH-pyrido[2,1-a]isoquinolin-9-yl]oxy}methyl)cyclopropane-1-carbonitrile]	83	≤ 2.97	≥ 420	≥87	≤2.59	–
COc1cc2c(cc1OCC1(F)CCC1)CCN1C[C@@H](CC(C)(C)C)[C@H](O)C[C@H]21 [Compound 4-61, (2R,3R,11bR)-3-(2,2-dimethylpropyl)-9-[(1-fluorocyclobutyl)methoxy]-10-methoxy-1H,2H,3H,4H,6H,7H,11bH-pyrido[2,1-a]isoquinolin-2-ol]	3.5	42	30	32	13.55	–
